# Measured values from patent US20230148417A1, “FUSED BICYCLIC DERIVATIVE, PREPARATION METHOD THEREFOR, AND PHARMACEUTICAL USE THEREOF” (Jiangsu Hengrui Pharmaceuticals Co., Ltd., priority 2020, published 2023).
# Like-named read-outs stand apart in the source and are kept apart here.
# Columns and labels:
# [1] = target: T1, AKT3 (Homo sapiens, UniProt Q9Y243); test: AKT3 enzymatic assay (KinEASE-STK S3 HTRF kit); assay type: biochemical; details: 0.4 nM enzyme, 45 μM ATP, 2 μM S3-biotin
# T1 construct: purchased Invitrogen PV3185
# T1 sequence (Q9Y243 whole entry): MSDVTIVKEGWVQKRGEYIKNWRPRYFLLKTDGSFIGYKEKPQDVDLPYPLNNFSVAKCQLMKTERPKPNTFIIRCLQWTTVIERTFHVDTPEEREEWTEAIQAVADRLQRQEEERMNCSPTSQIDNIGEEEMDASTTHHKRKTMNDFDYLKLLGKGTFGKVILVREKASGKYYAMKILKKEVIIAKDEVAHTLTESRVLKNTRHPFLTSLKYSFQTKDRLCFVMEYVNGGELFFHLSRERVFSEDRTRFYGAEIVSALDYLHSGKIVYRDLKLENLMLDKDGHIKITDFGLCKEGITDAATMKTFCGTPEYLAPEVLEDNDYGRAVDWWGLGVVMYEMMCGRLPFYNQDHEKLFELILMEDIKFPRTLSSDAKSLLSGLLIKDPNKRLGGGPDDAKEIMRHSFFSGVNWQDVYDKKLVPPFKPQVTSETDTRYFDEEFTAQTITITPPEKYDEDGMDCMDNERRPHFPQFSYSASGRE
# Protocol: (§1) The following methods were used to determine the inhibitory effect of the compounds of the present disclosure on the kinase activity of AKT1/AKT2/AKT3 in vitro. The experimental methodology is briefly described as follows:
# (§2) The enzyme activity of AKT1 (Invitrogen, P2999), AKT2 (Invitrogen, PV3184) and AKT3 (Invitrogen, PV3185) was determined using a KinEASE-STK S3 kit (Cisbio, 62ST3PEC). Test compounds were each first subjected to 3-fold gradient dilution with DMSO from 500 μM to obtain a total of 11 concentrations. The 5× buffer in the kit was diluted to 1×buffer, and DTT (Sigma, 43816-10ML) and MgCl2 were added to make the buffer contain 1 mM DTT and 5 mM MgCl2. Compounds were each subjected to 20-fold dilution with 1× buffer for later use. The enzyme solution was obtained by diluting the AKT1/AKT2/AKT3 kinase with 1× buffer. ATP (Invitrogen, PV3227) and S3-biotin in the kit were diluted with 1× buffer to obtain a substrate-ATP mixture solution for later use. 2 μL of the enzyme solution and 4 μL of the compound solution were added to each well of a 384-well plate (Corning, 4513), and the mixture was incubated at room temperature for 30 min, followed by addition of 4 μL of the ATP and S3-biotin mixture solution. The resulting mixture was incubated at room temperature for 90 min. AKT1 enzyme reaction conditions were a final concentration of 2 nM for enzyme, a final concentration of 10 μM for ATP, and a final concentration of 2 μM for S3-biotin. AKT2 enzyme reaction conditions were a final concentration of 5 nM for enzyme, a final concentration of 10 μM for ATP, and a final concentration of 2 μM for S3-biotin. AKT3 enzyme reaction conditions were a final concentration of 0.4 nM for enzyme, a final concentration of 45 μM for ATP, and a final concentration of 2 μM for S3-biotin. The detection solution was prepared by diluting the S3-cryptate and streptavidin-XL665 with the detection buffer in the kit. After incubation, 10 μL of the detection solution was added to each well, the final concentration of S3-cryptate was a concentration obtained by 200-fold dilution of the stock solution, and the final concentration of streptavidin-XL665 was 125 nM. The mixture was incubated at room temperature for 60 min, values of signals emitted at […] and 620 nm after excitation at 337 nm were measured by using an HTRF module of a multi-functional microplate detector (BMG Labtech, PHERAstar FS), and the reading ratio was multiplied by 10,000 to obtain a specific value. Dose-response curves were drawn according to the concentration of the compounds and the specific values by using Graphpad Prism software, and the IC50 values for the inhibitory activity of the compounds were calculated.
# [2] = Pharmacokinetic study in rats, administration by injection (i.v.); assay type: in vivo; details: both sexes, rat, iv, SD rats, 1 mg/kg, plasma; for Vd: read-out: Apparent volume of distribution Vz; for AUC(0-t): read-out: Area under curve AUC0-t; for clearance: read-out: Clearance CL; for half-life: read-out: Half-life T1/2 (converted); for MRT: read-out: Residence time MRT
# Protocol: The drug concentration in the plasma of the test animals (SD rats) at different time points after injection (i.v.) of the test compounds was determined by using an LC/MS/MS method. The pharmacokinetic performance in rats of the compounds of present disclosure was studied and their pharmacokinetic profile was evaluated.
# 8 SD rats, half male and half female, divided into 2 groups, purchased from Vital River Laboratory Animal Technology Co., Ltd.
# A certain amount of the compound was weighed out, and 5% of DMSO, 5% of Tween 80 and 90% of normal saline were added to obtain a colorless and clear solution.
# The rats were subjected to administration by injection, the administration dose was 1 mg/kg, and the administration volume was 5 mL/kg.
# The test compound was administered by injection to the rats, and 0.2 mL of blood was collected from the orbit before administration and 5 min, 0.25 h, 0.5 h, 1.0 h, 2.0 h, 4.0 h, 8.0 h, 11.0 h and 24.0 h after administration. The blood was placed in an EDTA-K2 anticoagulation tube and centrifuged at 10,000 rpm for 1 min (4° C.), and plasma was separated out within 1 h and then stored at −20° C. for testing. The process from blood sampling to centrifugation was performed under an ice bath.
# The content of the test compounds at different concentrations in the rat plasma after administration by injection was determined: 25 μL of rat plasma at each time point after administration was mixed with 50 μL of internal standard solution (camptothecin, 100 ng/mL) and 200 μL of acetonitrile, and the mixture was vortexed for 5 min and centrifuged for 10 min at 3700 rpm. 3 μL of supernatant of the plasma sample was taken for LC/MS/MS analysis.
# [3] = target: T2, AKT1 (Homo sapiens, UniProt P31749); test: AKT1 enzymatic assay (KinEASE-STK S3 HTRF kit); assay type: biochemical; details: 2 nM enzyme, 10 μM ATP, 2 μM S3-biotin
# T2 construct: purchased Invitrogen P2999
# T2 sequence (P31749 whole entry): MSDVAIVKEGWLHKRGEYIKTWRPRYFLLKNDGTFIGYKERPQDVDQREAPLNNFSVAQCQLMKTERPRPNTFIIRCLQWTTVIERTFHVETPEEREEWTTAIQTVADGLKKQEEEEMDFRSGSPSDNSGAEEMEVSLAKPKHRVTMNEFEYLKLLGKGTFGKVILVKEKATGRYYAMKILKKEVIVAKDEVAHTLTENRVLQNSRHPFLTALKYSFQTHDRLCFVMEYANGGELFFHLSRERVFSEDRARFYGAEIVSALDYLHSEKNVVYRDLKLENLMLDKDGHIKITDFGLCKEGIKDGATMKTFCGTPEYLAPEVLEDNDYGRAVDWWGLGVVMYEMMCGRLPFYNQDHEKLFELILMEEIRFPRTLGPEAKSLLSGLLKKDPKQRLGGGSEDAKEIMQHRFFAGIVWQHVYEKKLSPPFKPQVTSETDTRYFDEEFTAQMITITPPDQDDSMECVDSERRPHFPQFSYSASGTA
# Protocol: as §1, §2
# [4] = target: T3, AKT2 (Homo sapiens, UniProt P31751); test: AKT2 enzymatic assay (KinEASE-STK S3 HTRF kit); assay type: biochemical; details: 5 nM enzyme, 10 μM ATP, 2 μM S3-biotin
# T3 construct: purchased Invitrogen PV3184
# T3 sequence (P31751 whole entry): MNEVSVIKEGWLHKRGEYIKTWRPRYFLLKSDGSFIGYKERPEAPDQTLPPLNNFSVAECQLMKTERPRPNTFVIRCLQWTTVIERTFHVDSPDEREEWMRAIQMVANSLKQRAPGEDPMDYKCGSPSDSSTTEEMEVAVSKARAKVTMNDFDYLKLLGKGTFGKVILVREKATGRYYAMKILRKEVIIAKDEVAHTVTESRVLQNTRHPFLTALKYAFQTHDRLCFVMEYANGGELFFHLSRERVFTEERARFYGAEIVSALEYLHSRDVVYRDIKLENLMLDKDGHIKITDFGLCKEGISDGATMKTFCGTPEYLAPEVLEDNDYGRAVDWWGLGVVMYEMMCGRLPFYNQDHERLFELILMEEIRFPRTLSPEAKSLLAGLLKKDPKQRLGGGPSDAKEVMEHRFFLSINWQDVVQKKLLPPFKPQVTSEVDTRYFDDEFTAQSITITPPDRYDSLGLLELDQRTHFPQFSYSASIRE
# Protocol: as §1, §2
# [5] = Pharmacokinetic study in nude mice, intragastric administration; assay type: in vivo; details: female, mouse, po, Balb/c nude mice, i.g., plasma; for Vd/F: read-out: Apparent volume of distribution Vz/F; for AUC(0-t): read-out: Area under curve AUC0-t; for CL/F: read-out: Clearance CL/F; for half-life: read-out: Half-life T1/2 (converted); for Cmax: read-out: Plasma concentration Cmax; for MRT: read-out: Residence time MRT
# Protocol: The drug concentration in the plasma of the test animals (Balb/c nude mice) at different time points after intragastric administration (i.g.) of the test compounds was determined by using an LC/MS/MS method. The pharmacokinetic performance of the compounds of the present disclosure in nude mice was studied and their pharmacokinetic profile was evaluated.
# 18 Balb/c nude mice, female, divided into 2 groups and purchased from Vital River Laboratory Animal Technology Co., Ltd.
# A certain amount of compound was weighed out, 99.8% 0.5% methylcellulose was added into the compound, and then 0.2% Tween was added. The mixture was subjected to ultrasonic treatment to obtain a suspension, which was stirred for administration.
# The nude mice were subjected to intragastric administration, the administration dose was 50 mg/kg or 100 mg/kg, and the administration volume was 0.2 mL/10 g.
# The test compound was administered intragastrically to the nude mice, and 0.1 mL of blood was collected before administration and 0.25 h, 0.5 h, 1.0 h, 2.0 h, 4.0 h, 6.0 h, 8.0 h, 11.0 h and 24.0 h after administration. The blood was placed in an EDTA-K2 anticoagulation tube and centrifuged at 10,000 rpm for 1 min (4° C.), and plasma was separated out within 1 h and then stored at −20° C. for testing. The process from blood sampling to centrifugation was performed under an ice bath.
# The content of the test compounds at different concentrations in the nude mice plasma after intragastric administration was determined: 20 μL of nude mouse plasma at each time point after administration was mixed with 50 μL of internal standard solution (camptothecin, 100 ng/mL) and 200 μL of acetonitrile, and the mixture was vortexed for 5 min and centrifuged for 10 min at 3700 rpm. 1 μL of supernatant of the plasma sample was taken for LC/MS/MS analysis.
smiles,measurement,setting,value
CC(C)NC[C@@H](C(=O)N1C2CCC1CN(c1ncnc3c1C(C)(C)C(=O)N3)C2)c1ccc(Cl)cc1 [Example 2],IC50,[1],0.002 µM
same,Vd,[2],13 L/kg
same,AUC(0-t),[2],0.221 µg·h/mL
same,clearance,[2],4.52 L/h/kg
same,half-life,[2],2 h
same,MRT,[2],2.6 h
same,IC50,[3],0.06 µM
same,IC50,[4],0.0741 µM
same,Vd/F,[5]; 50 mg/kg,8.03 L/kg
same,AUC(0-t),[5]; 50 mg/kg,20.2 µg·h/mL
same,CL/F,[5]; 50 mg/kg,2.47 L/h/kg
same,half-life,[5]; 50 mg/kg,2.3 h
same,Cmax,[5]; 50 mg/kg,3 µg/mL
same,MRT,[5]; 50 mg/kg,4.9 h
same,Vd/F,[5]; 100 mg/kg,16.2 L/kg
same,AUC(0-t),[5]; 100 mg/kg,36 µg·h/mL
same,CL/F,[5]; 100 mg/kg,2.72 L/h/kg
same,half-life,[5]; 100 mg/kg,4.1 h
same,Cmax,[5]; 100 mg/kg,3.5 µg/mL
same,MRT,[5]; 100 mg/kg,6.7 h
"CC(C)NC[C@@H](C(=O)N1CC2COCC(C1)N2c1ncnc2[nH]ccc12)c1ccc(Cl)cc1 [Example 7, (2S)-1-(9-(7H-pyrrolo[2,3-d]pyrimidin-4-yl)-3-oxa-7,9-diazabicyclo[3.3.1]nonan-7-yl)-2-(4-chlorophenyl)-3-(isopropylamino)-propan-1-one]",IC50,[1],0.06 µM
same,IC50,[3],0.082 µM
same,IC50,[4],0.27 µM
"CC(C)NC[C@@H](C(=O)N1[C@@H]2CC[C@H]1CN(c1ncnc3c1[C@H](C)C[C@H]3O)C2)c1ccc(Cl)cc1 [Example 4, (S)-2-(4-chlorophenyl)-1-((1R,5S)-3-((5R,7R)-7-hydroxy-5-methyl-6,7-dihydro-5H-cyclopenta[d]pyrimidin-4-yl)-3,8-diazabicyclo[3.2.1]octan-8-yl)-3-(isopropylamino)propan-1-one]",IC50,[1],0.0556 µM
same,Vd,[2],16.3 L/kg
same,AUC(0-t),[2],0.205 µg·h/mL
same,clearance,[2],4.97 L/h/kg
same,half-life,[2],2.5 h
same,MRT,[2],2.2 h
same,IC50,[3],0.0386 µM
same,IC50,[4],0.0464 µM
same,Vd/F,[5]; 50 mg/kg,8.71 L/kg
same,AUC(0-t),[5]; 50 mg/kg,14.3 µg·h/mL
same,CL/F,[5]; 50 mg/kg,3.45 L/h/kg
same,half-life,[5]; 50 mg/kg,1.8 h
same,Cmax,[5]; 50 mg/kg,4.13 µg/mL
same,MRT,[5]; 50 mg/kg,3 h
same,Vd/F,[5]; 100 mg/kg,13.2 L/kg
same,AUC(0-t),[5]; 100 mg/kg,27.5 µg·h/mL
same,CL/F,[5]; 100 mg/kg,3.63 L/h/kg
same,half-life,[5]; 100 mg/kg,2.5 h
same,Cmax,[5]; 100 mg/kg,5.5 µg/mL
same,MRT,[5]; 100 mg/kg,3.7 h
"CC(C)NC[C@@H](C(=O)N1C2CCCC1CN(c1ncnc3[nH]ccc13)C2)c1ccc(Cl)cc1 [Example 5, (2S)-1-(3-(7H-pyrrolo[2,3-d]pyrimidin-4-yl)-3,9-diazabicyclo[3.3.1]nonan-9-yl)-2-(4-chlorophenyl)-3-(isopropylamino)propan-1-one]",IC50,[1],0.112 µM
same,IC50,[3],0.0681 µM
same,IC50,[4],0.0701 µM
"CC(C)NC[C@@H](C(=O)N1C2COCC1CN(c1ncnc3[nH]ccc13)C2)c1ccc(Cl)cc1 [Example 6, (2S)-1-(7-(7H-pyrrolo[2,3-d]pyrimidin-4-yl)-3-oxa-7,9-diazabicyclo[3.3.1]nonan-9-yl)-2-(4-chlorophenyl)-3-(isopropylamino)propan-1-one]",IC50,[1],0.268 µM
same,IC50,[3],0.0884 µM
same,IC50,[4],0.141 µM
"CC(C)NC[C@@H](C(=O)N1[C@@H]2CC[C@H]1CN(c1ncnc3[nH]ccc13)C2)c1ccc(Cl)cc1 [Example 1, (S)-1-((1R,5S)-3-(7H-pyrrolo[2,3-d]pyrimidin-4-yl)-3,8-diazabicyclo[3.2.1]octan-8-yl)-2-(4-chlorophenyl)-3-(isopropylamino)propan-1-one]",IC50,[1],0.0276 µM
same,IC50,[3],0.02 µM
same,IC50,[4],0.0649 µM
"Cc1c[nH]c2ncnc(N3C[C@H]4CC[C@@H](C3)N4C(=O)[C@H](CNC(C)C)c3ccc(Cl)cc3)c12 [Example 3, (S)-2-(4-chlorophenyl)-3-(isopropylamino)-1-((1R,5S)-3-(5-methyl-7H-pyrrolo[2,3-d]pyrimidin-4-yl)-3,8-diazabicyclo[3.2.1]octan-8-yl]propan-1-one]",IC50,[1],0.0012 µM
same,IC50,[3],0.0052 µM
same,IC50,[4],0.0039 µM
"CC(C)NC[C@@H](C(=O)N1[C@@H]2CC[C@H]1CN(c1ncnc3c1[C@H](C)C[C@H]3F)C2)c1ccc(Cl)cc1 [Example 8, (S)-2-(4-chlorophenyl)-1-((1R,5S)-3-((5R,7R)-7-fluoro-5-methyl-6,7-dihydro-5H-cyclopenta[d]pyrimidin-4-yl)-3,8-diazabicyclo[3.2.1]octan-8-yl)-3-(isopropylamino)propan-1-one]",IC50,[1],0.066 µM
same,IC50,[3],0.0562 µM
same,IC50,[4],0.054 µM
"Cc1c[nH]c2nccc(N3C[C@H]4CC[C@@H](C3)N4C(=O)[C@H](CNC(C)C)c3ccc(Cl)cc3)c12 [Example 9, (S)-2-(4-chlorophenyl)-3-(isopropylamino)-1-((1R,5S)-3-(3-methyl-1H-pyrrolo[2,3-b]pyridin-4-yl)-3,8-diazabicyclo[3.2.1]octan-8-yl)propan-1-one]",IC50,[1],0.0063 µM
same,IC50,[3],0.0196 µM
same,IC50,[4],0.0131 µM
